Patent publication US20230416248A1, “COMPOUNDS AND USES THEREOF” (Foghorn Therapeutics Inc., priority 2020, published 2023)
pIC50: −log10 of the molar value. Where two headings read alike, the source gives them in different places.

Key:
BRG-1 = molecular target: T1, BRG-1 (Homo sapiens, UniProt P51532); assay: ATPase catalytic activity of BRG-1, ADP-Glo in vitro biochemical assay; settings: 30 nM BRG-1, 400 μM ATP, read-out: BRG1 IC50
T1 construct: made in house; host or cells: High Five insect cells
How it was run: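 BRG-1 ATPase activity was measured in vitro by ADP-Glo. After the reaction, ADP-Glo Reagent depleted unconsumed ATP (40 min, room temperature), then Kinase Detection Reagent converted product ADP to ATP (60 min, room temperature), and luciferase luminescence was read.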

BRM = molecular target: T2, BRM (Homo sapiens, UniProt P51531); assay: ATPase catalytic activity of BRM, ADP-Glo in vitro biochemical assay; settings: for pIC50: 30 nM BRM, 400 μM ATP; for Ratio* (BRG1 IC50 (μM) divided by BRM IC50 (μM)): selectivity ratio BRG1 IC50 / BRM IC50
T2 construct: made in house; host or cells: High Five insect cells
How it was run: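 Recombinant BRM (30 nM) hydrolysed 400 μM ATP with 20 nM salmon sperm DNA in pH 8 Tris buffer containing 20 mM MgCl2, 50 mM NaCl, 0.1% Tween-20 and 1 mM DTT, 1 h at room temperature. ADP formed was quantified by ADP-Glo luminescence.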

[1] = ATPase catalytic activity, ADP-Glo

T2 sequence (P51531 whole entry): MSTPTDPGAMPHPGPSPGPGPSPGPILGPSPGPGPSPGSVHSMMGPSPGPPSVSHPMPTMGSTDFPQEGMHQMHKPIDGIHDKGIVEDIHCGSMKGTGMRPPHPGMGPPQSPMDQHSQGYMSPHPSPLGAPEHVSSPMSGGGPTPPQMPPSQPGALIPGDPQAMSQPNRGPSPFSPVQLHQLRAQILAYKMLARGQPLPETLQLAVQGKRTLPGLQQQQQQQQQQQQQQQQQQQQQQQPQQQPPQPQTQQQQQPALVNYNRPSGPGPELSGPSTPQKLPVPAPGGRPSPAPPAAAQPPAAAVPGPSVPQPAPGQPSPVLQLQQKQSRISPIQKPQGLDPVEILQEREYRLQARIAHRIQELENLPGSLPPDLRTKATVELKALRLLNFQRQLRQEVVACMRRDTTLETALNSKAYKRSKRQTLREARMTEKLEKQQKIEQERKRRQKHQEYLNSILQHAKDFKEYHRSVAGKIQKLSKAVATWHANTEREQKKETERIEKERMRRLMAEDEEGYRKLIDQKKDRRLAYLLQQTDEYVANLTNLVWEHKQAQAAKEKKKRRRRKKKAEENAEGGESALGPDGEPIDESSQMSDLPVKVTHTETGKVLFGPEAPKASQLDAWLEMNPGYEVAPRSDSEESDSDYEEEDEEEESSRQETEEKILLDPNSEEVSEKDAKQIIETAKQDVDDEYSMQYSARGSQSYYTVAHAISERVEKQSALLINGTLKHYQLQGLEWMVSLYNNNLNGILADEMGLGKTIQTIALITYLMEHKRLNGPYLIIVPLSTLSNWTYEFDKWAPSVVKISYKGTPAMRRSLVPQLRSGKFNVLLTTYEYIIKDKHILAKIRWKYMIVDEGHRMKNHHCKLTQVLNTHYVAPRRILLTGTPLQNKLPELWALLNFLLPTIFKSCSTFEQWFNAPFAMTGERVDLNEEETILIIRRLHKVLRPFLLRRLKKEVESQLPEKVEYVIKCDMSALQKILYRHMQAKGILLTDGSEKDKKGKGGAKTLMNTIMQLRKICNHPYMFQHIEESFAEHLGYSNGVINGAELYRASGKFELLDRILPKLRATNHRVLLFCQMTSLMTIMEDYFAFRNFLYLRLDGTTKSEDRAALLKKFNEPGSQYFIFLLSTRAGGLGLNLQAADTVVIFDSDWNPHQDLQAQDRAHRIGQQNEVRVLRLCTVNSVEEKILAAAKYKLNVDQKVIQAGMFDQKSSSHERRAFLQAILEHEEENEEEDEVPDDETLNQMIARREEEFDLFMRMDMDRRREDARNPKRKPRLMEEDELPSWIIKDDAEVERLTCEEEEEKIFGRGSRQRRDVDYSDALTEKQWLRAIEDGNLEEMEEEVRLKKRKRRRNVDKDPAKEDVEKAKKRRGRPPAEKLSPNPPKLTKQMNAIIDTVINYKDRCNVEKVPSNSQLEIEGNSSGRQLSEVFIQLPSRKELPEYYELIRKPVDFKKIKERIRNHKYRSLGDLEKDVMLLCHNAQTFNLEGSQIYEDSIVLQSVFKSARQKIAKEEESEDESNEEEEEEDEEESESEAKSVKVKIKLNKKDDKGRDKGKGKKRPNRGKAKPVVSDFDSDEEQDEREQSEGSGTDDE
T1 sequence (P51532 whole entry): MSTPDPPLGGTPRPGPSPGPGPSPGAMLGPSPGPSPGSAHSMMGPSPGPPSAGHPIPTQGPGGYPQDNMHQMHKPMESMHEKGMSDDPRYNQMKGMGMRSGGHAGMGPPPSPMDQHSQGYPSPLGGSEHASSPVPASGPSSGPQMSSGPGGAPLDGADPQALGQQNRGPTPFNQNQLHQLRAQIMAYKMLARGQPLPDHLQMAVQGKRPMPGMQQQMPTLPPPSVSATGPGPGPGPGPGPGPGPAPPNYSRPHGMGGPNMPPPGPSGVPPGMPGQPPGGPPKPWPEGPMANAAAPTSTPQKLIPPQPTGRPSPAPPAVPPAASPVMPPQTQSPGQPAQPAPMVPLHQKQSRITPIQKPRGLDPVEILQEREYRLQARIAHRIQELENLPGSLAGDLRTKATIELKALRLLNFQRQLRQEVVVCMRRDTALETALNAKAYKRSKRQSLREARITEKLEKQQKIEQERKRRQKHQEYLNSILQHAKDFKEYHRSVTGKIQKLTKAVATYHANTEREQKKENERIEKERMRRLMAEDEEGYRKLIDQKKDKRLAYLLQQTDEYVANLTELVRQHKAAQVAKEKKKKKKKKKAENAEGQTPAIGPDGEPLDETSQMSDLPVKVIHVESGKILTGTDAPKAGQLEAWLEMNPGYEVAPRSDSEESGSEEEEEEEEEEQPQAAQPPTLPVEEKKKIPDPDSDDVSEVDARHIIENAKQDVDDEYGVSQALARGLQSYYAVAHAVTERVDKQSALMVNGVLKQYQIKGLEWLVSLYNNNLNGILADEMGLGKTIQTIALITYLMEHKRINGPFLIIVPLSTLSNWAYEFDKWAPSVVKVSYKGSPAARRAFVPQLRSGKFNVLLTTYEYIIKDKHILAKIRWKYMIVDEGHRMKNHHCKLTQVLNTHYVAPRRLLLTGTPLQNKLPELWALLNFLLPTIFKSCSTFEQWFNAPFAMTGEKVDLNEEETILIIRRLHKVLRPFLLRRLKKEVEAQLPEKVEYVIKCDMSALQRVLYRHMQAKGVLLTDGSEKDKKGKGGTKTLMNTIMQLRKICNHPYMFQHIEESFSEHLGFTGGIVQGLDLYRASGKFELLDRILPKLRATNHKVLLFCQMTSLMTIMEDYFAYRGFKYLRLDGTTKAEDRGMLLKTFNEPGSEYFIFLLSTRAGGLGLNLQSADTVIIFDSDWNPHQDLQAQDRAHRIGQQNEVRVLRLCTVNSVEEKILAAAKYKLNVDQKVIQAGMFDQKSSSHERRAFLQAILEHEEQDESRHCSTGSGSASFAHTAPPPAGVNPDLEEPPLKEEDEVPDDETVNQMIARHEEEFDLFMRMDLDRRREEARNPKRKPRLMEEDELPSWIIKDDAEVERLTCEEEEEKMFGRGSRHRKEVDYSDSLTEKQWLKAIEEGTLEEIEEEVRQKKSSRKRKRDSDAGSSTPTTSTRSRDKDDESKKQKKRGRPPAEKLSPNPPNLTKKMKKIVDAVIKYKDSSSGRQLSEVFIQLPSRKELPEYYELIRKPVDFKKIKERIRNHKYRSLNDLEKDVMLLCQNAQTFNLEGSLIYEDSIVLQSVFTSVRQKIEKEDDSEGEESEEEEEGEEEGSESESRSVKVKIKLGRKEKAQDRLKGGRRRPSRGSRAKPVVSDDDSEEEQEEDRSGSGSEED

SMILES	pIC50 (BRG-1; ADP-Glo ATPase assay)	pIC50 (BRM; ADP-Glo ATPase assay)	Ratio* (BRM; ratio BRG1 IC50 / BRM IC50)	Ratio* (BRG1 IC50 (μM) divided by BRM IC50 (μM)) (BRM)	pIC50 (BRG-1; [1])	pIC50 (BRM; [1])	Ratio* (BRM; ratio of BRG1 IC50 to BRM IC50)
Cc1cc(C(=O)NCc2cc3cc(-c4cccc(N5C[C@@H](C)O[C@@H](C)C5)n4)ccc3cn2)cc2c1COCCS2(=O)=O [Compound 728]	7.53	7.91	2.42	–	–	–	–
COCc1c(Cl)cc(C(=O)NCc2cc3nc(-c4cccc(N5C[C@@H](C)O[C@@H](C)C5)n4)ccc3cn2)cc1S(C)(=O)=O [Compound 114]	5.79	7.15	–	22.76	–	–	–
COCCN(C)c1cccc(-c2ccc3cnc(CNC(=O)c4ccc5c(c4)S(=O)(=O)CCOC5)cc3n2)n1 [Compound 145]	7.24	8.44	–	15.77	–	–	–
CC1COCc2ccc(C(=O)NCc3cc4nc(-c5cccc(N6CCC6)n5)ccc4cn3)cc2S1(=O)=O (single isomer, unassigned) [Compound 199]	5.62	6.60	–	9.56	–	–	–
COc1ccc2c(c1)CCN2c1ccc2cnc(CNC(=O)c3ccc4c(c3)S(=O)(=O)CCOC4)cc2n1 [Compound 653]	–	–	–	–	5.76	6.64	7.47
C[C@@H]1CN(c2cccc(-c3ccc4cnc(CNC(=O)c5ccc6c(c5)S(=O)(=O)CC[C@H](C5CC5)O6)cc4n3)n2)C[C@H](C)O1 [Compound 435]	–	–	–	–	5.37	6.64	18.45
Cc1ccc2c(n1)N(c1ccc3cnc(CNC(=O)c4ccc5c(c4)S(=O)(=O)CCOC5)cc3n1)CCO2 [Compound 557]	–	–	–	–	6.63	7.95	20.89
O=C1CS(=O)(=O)c2cc(C(=O)NCc3cc4nc(-c5cccc(C6CC6)c5)ccc4cn3)ccc2CN1 [Compound 188]	5.30	6.54	–	17.42	–	–	–
C[C@@H]1C[C@H]1c1ccc2c(n1)N(c1ccc3cnc(CNC(=O)c4ccc5c(c4)S(=O)(=O)CCOC5)cc3n1)CCO2 [Compound 809]	6.57	8.16	39.28	–	–	–	–
O=C(NCc1cc2nc(-c3cccc(OCC4CC4)c3)ccc2cn1)c1ccc2c(c1)S(=O)(=O)CCOC2 [Compound 820]	5.86	7.02	14.31	–	–	–	–
O=C(NCc1cc2nc(-c3cccc(N4CC5(C4)CC5(F)F)n3)ccc2cn1)c1ccc2c(c1)S(=O)(=O)CCOC2 [Compound 128]	6.33	7.37	–	10.99	–	–	–
CN(c1cccc(-c2ccc3cnc(CNC(=O)c4ccc5c(c4)S(=O)(=O)CCOC5)cc3n2)n1)[C@@H]1CCOC1 [Compound 116]	6.63	7.65	–	10.43	–	–	–
C[C@@H]1CN(c2cccc(-c3ccc4cnc(CNC(=O)c5ccc6c(c5)S(=O)(=O)CCOC6(C)C)cc4n3)n2)C[C@H](C)O1 [Compound 655]	–	–	–	–	5.41	6.60	15.80
O=C(NCc1cc2nc(N3CCC(F)(F)c4cccnc43)ccc2cn1)c1ccc2c(c1)S(=O)(=O)CCOC2 [Compound 767]	6.71	7.76	11.17	–	–	–	–
O=C(NCc1cc2nc(N3CCOc4ccc([C@@H](F)CF)nc43)ccc2cn1)c1ccc2c(c1)S(=O)(=O)CCOC2 [Compound 854]	5.68	6.98	19.74	–	–	–	–
COCCN(C)c1cccc(-c2ccc3cnc(CNC(=O)c4ccc(Cl)c(S(C)(=O)=O)c4)cc3n2)n1 [Compound 97]	6.49	7.69	–	15.97	–	–	–
CN1CCc2nc(-c3ccc4cnc(CNC(=O)c5ccc6c(c5)S(=O)(=O)CCOC6)cc4n3)ccc21 [Compound 176]	5.75	6.36	–	4.10	–	–	–
O=C(NCc1cc2nc(N3CCc4cccnc43)ccc2cn1)c1ccc2c(c1)S(=O)(=O)CCOC2 [Compound 47]	6.34	7.13	–	6.12	–	–	–
C[C@@H]1CN(c2cccc(-c3ccc4nnc(CNC(=O)c5ccc(C(F)F)c(S(C)(=O)=O)c5)cc4n3)n2)C[C@H](C)O1 [Compound 40]	7.05	8.05	–	–	–	–	–
CCOc1nc(-c2ccc3cnc(CNC(=O)c4ccc5c(c4)S(=O)(=O)CCOC5)cc3n2)ccc1C(F)F [Compound 489]	–	–	–	–	6.74	7.80	11.37
COc1nc(-c2ccc3cnc(CNC(=O)c4ccc5c(c4)S(=O)(=O)[C@@H](C)COC5)cc3n2)ccc1C(F)F [Compound 519]	–	–	–	–	6.84	7.88	10.89
CN(c1cnc2c(c1)OCCN2c1ccc2cnc(CNC(=O)c3ccc4c(c3)S(=O)(=O)CCOC4)cc2n1)C1CC(F)(F)C1 [Compound 817]	6.84	7.91	11.55	–	–	–	–

SMILES	pIC50 (BRG-1; ADP-Glo ATPase assay)	pIC50 (BRM; ADP-Glo ATPase assay)	Ratio* (BRM; ratio BRG1 IC50 / BRM IC50)	Ratio* (BRG1 IC50 (μM) divided by BRM IC50 (μM)) (BRM)	pIC50 (BRG-1; [1])	pIC50 (BRM; [1])	Ratio* (BRM; ratio of BRG1 IC50 to BRM IC50)
CS(=O)(=O)c1cc(C(=O)NCc2cc3nc(-c4cncc(C5CC5)n4)ccc3cn2)ccc1C(F)F [Compound 231]	5.63	6.89	–	17.98	–	–	–
O=C(NCc1cc2nc(-c3ccc4c(n3)OCC4)ccc2cn1)c1ccc2c(c1)S(=O)(=O)CCOC2 [Compound 139]	5.68	6.36	–	4.81	–	–	–
CC1CCc2ccc(C(=O)NCc3cc4nc(-c5cccc(N6C[C@@H](C)O[C@@H](C)C6)n5)ccc4cn3)cc2S1(=O)=O (some centres unmarked) [Compound 324]	–	–	–	–	6.21	7.61	24.73
O=C(NCc1cc2nc(-c3ccccc3OC3CC3)ccc2cn1)c1ccc2c(c1)S(=O)(=O)CCOC2 [Compound 232]	6.39	7.23	–	7.00	–	–	–
CCO[C@H](C)c1ccc2c(n1)N(c1ccc3cnc(CNC(=O)c4ccc5c(c4)S(=O)(=O)CCOC5)cc3n1)CCC2 [Compound 636]	–	–	–	–	5.37	6.57	15.73
O=C(NCc1cc2nc(-c3cncc(C4CC4)n3)ccc2cn1)c1cnc2c(c1)S(=O)(=O)CCCC2(F)F [Compound 434]	–	–	–	–	5.80	6.93	13.52
C[C@H]1C[C@@H]1c1ccc2c(n1)N(c1ccc3cnc(CNC(=O)c4ccc5c(c4)S(=O)(=O)CCOC5)cc3n1)CCO2 [Compound 810]	6.73	8.08	22.29	–	–	–	–
O=C(NCc1cc2nc(N3CCCc4cc(C5CC5)cnc43)ccc2cn1)c1ccc2c(c1)S(=O)(=O)CCOC2 [Compound 394]	–	–	–	–	7.06	8.24	15.21
Cc1cnc2c(c1)OCCN2c1ccc2cnc(CNC(=O)c3cc(C)c4c(c3)S(=O)(=O)CCOC4)cc2n1 [Compound 549]	–	–	–	–	6.88	8.14	17.80
O=C(NCc1cc2cc(-c3cccc(N4CCC4)n3)ccc2cn1)c1ccc2c(c1)S(=O)(=O)CCOC2 [Compound 271]	6.69	7.79	–	12.70	–	–	–
CS(=O)(=O)c1cc(C(=O)NCc2cc3nc(-c4cncc(C5CC5)n4)ccc3cn2)cc(F)c1Cl [Compound 272]	5.37	6.61	–	17.28	–	–	–
CCc1ccc2c(n1)N(c1ccc3cnc(CNC(=O)c4ccc5c(c4)S(=O)(=O)CCOC5)cc3n1)CCO2 [Compound 658]	–	–	–	–	6.47	8.15	48.50
O=C(NCc1cc2nc(N3CCCc4cc(F)c(F)cc43)ccc2cn1)c1ccc2c(c1)S(=O)(=O)CCOC2 [Compound 625]	–	–	–	–	6.29	7.44	14.05
C[C@@H]1[C@@H](c2cccc(-c3ccc4cnc(CNC(=O)c5ccc6c(c5)S(=O)(=O)CCOC6)cc4n3)n2)C1(F)F [Compound 173]	5.83	6.97	–	13.78	–	–	–
COc1ccc2c(c1F)N(c1ccc3cnc(CNC(=O)c4ccc5c(c4)S(=O)(=O)CCOC5)cc3n1)CCO2 [Compound 774]	6.76	7.92	14.44	–	–	–	–
COC[C@H]1C[C@@H]1N(C)c1cccc(-c2ccc3cnc(CNC(=O)c4ccc5c(c4)S(=O)(=O)CCOC5)cc3n2)n1 [Compound 312]	–	–	–	–	6.49	7.61	13.30
CN(C)[C@H]1CCN(c2cccc(-c3ccc4cnc(CNC(=O)c5ccc6c(c5)S(=O)(=O)CCOC6)cc4n3)n2)CC1(F)F [Compound 81]	5.76	6.56	–	6.33	–	–	–
COc1nc(-c2ccc3cnc(CNC(=O)c4cc(F)c5c(c4)S(=O)(=O)[C@@H](C)COC5)cc3n2)ccc1C(F)F [Compound 530]	–	–	–	–	6.66	7.71	11.19
O=C(NCc1cc2c(cn1)CCN(c1cncc(C3CC3)n1)C2)c1ccc2c(c1)S(=O)(=O)CCOC2 [Compound 290]	5.91	6.76	–	7.19	–	–	–
O=C(NCc1cc2nc(-c3cccc4c3OCCN4CC(F)F)ccc2cn1)c1ccc2c(c1)S(=O)(=O)CCOC2 [Compound 131]	6.29	7.15	–	7.12	–	–	–
O=C(NCc1cc2nc(-c3cccc4c3OCO4)ccc2cn1)c1ccc2c(c1)S(=O)(=O)CCOC2 [Compound 229]	5.82	6.93	–	12.81	–	–	–
